# Values joined by “and” are separate entries in the source; they are usually repeats but may differ in a detail not shown here. Identical values can stand only once.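 Step 1: Grow cells in 96-well plates. Step 2: Expose to compound for 48 hours at 5 concentrations. Step 3: Interpolate endpoints linearly; if unreached, use highest concentration. GI50 is the concentration that inhibits growth by half. TGI denotes the concentration required for complete inhibition of growth.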
# Columns and labels:
# Assay in all cases: DTP human tumour cell line panel, 48 h
# [1] = test system: SW-620 colon
# [2] = test system: HS 578T breast
# [3] = test system: SK-MEL-2 melanoma
# [4] = test system: HOP-92 NSCLC
# [5] = test system: SF-268 CNS
# [6] = test system: BT-549 breast
# [7] = test system: 786-0 renal
# [8] = test system: MCF7 breast
# [9] = test system: K-562 leukemia
# [10] = test system: EKVX NSCLC
SMILES,GI50 [1],TGI [1],GI50 [2],TGI [2],GI50 [3],TGI [3],GI50 [4],TGI [4],GI50 [5],TGI [5],GI50 [6],TGI [6],GI50 [7],TGI [7],GI50 [8],TGI [8],GI50 [9],TGI [9],GI50 [10],TGI [10]
ClC1=C(Cl)C(Cl)=C(Cl)C1=Cc1ccc(Cl)cc1Cl,0.272 µM,0.717 µM,0.522 µM,> 100 µM,1.51 µM,4.49 µM,0.633 µM,2.56 µM,0.308 µM,1.43 µM,0.277 µM,0.809 µM,0.241 µM,0.618 µM,0.319 µM,> 100 µM,0.341 µM,2 µM,0.523 µM,4.37 µM
CN(C)CCN1C(=O)c2cccc3c(-c4ccc5ncn(C6CCCCC6)c5c4)ccc(c23)C1=O,1.06 µM,11 µM,3.51 µM,20.8 µM,2.19 µM,7.32 µM,1.79 µM,6.45 µM,2.73 µM,12.8 µM,3.95 µM,16.2 µM,1.59 µM,12.2 µM,1.56 µM,11.1 µM,1.27 µM,> 100 µM,2.05 µM,7.73 µM
C=C(CN(CCN1CCOCC1)CC(=C)c1ccc(C(=O)Nc2ccccc2N)cc1)c1ccc(C(=O)Nc2ccccc2N)cc1,8.71 µM,38.5 µM,5.55 µM,42.8 µM,11.1 µM,> 50 µM,8.35 µM,33.8 µM,8.17 µM,25 µM,8.56 µM,21.2 µM,1.07 µM,6.65 µM,11 µM,> 50 µM,28.1 µM,> 50 µM,14 µM,> 50 µM
CCN1CCN(c2nc(C)cc(N(CCCNc3ccnc4cc(Cl)ccc34)Cc3ccco3)n2)CC1,3.12 µM,13 µM,2.87 µM,9.97 µM,1.94 µM,3.92 µM,2.26 µM,6.72 µM,4.31 µM,20.6 µM,2.03 µM,5.99 µM,1.85 µM,4.15 µM,2.98 µM,14.8 µM,2.3 µM,10.4 µM,7.67 µM,25.3 µM
CCCCCCCCCCC(CN(CC)CC)C(O)c1ccccc1 (stereo unspecified),1.8 µM,3.43 µM,1.75 µM,4.07 µM,2.31 µM,5.45 µM,1.27 µM,2.98 µM,1.94 µM,3.87 µM,2.02 µM,4.21 µM,1.67 µM,3.15 µM,1.63 µM,3.15 µM,2.03 µM,4.67 µM,1.56 µM,3.74 µM
COc1cccc2cc(N(C)c3nc(C)nc4ccsc34)ccc12,< 0.01 µM,16.6 µM,< 0.01 µM,22.4 µM,0.123 µM,17.3 µM,< 0.01 µM,2.19 µM,< 0.01 µM,13.9 µM,< 0.01 µM,1.3 µM,< 0.01 µM,12.3 µM,< 0.01 µM,16.3 µM,< 0.01 µM,> 48.6 µM,< 0.01 µM,21.1 µM
C=C1C(=O)O[C@H]2[C@H]1CC/C(COC(=O)NCc1cccc(OC)c1)=C\CC[C@@]1(C)O[C@@H]21,1.52 µM,3.28 µM,13 µM,37.8 µM,11.4 µM,25 µM,1.32 µM,2.96 µM,3.21 µM,12.1 µM,1.51 µM,3.21 µM,1.84 µM,3.61 µM,2.36 µM,8.97 µM,1.93 µM,6.79 µM,2 µM,5.81 µM
Cc1cccc2cc3ccc4ccccc4c3cc12,–,> 100 µM,–,> 100 µM,–,66.5 µM,–,> 100 µM,–,> 100 µM,–,> 100 µM,–,> 100 µM,–,98 µM,–,> 100 µM,–,78.3 µM
CN1CCN(c2ccc([N+](=O)[O-])c3no[n+]([O-])c23)CC1,0.117 µM,0.828 µM and 0.261 µM,0.228 µM,2.41 µM and 1.93 µM,0.468 µM,3.01 µM and 1.66 µM,0.188 µM,1.2 µM,0.198 µM,0.68 µM and 1.12 µM,0.841 µM,4.64 µM and 2.12 µM,0.298 µM,0.923 µM and 1.15 µM,0.141 µM,1.79 µM and 0.985 µM,0.11 µM,0.979 µM,–,2.83 µM and 2.92 µM
C[C@@H]1CCC2[C@@H](C)[C@H](OC(=O)CCC(=O)NCCNC(=O)Cc3cc(=O)oc4cc(N(C)C)ccc34)O[C@@H]3O[C@]4(C)CC[C@@H]1C23OO4 (stereo partly specified),0.457 µM,20.8 µM,3.21 µM,> 33.1 µM,5.4 µM,> 43.7 µM,2.6 µM,16.9 µM,5.25 µM,> 65.2 µM,3.07 µM,> 100 µM,4.24 µM,65.2 µM,2.92 µM,28.2 µM,0.348 µM,13.8 µM,0.645 µM,9.47 µM
CC(C)c1ccc(O)c(O)c(=O)c1 (tested in a mixture with another compound),–,> 100 µM,–,69.7 µM,–,3.02 µM,–,> 83 µM,–,> 61.5 µM,–,98.9 µM,–,> 100 µM,–,> 100 µM,–,> 100 µM,–,47.7 µM
CN(C)CCC(=O)NCc1c2nc3ccccc3nc2n2ccccc12,58.7 µM,> 100 µM,> 100 µM,> 100 µM,48.1 µM,> 100 µM,34.6 µM,> 100 µM,41.5 µM,> 100 µM,23.3 µM,60.8 µM,19 µM,45.9 µM,17.4 µM,> 100 µM,> 100 µM,> 100 µM,43.1 µM,> 100 µM
C=C(C)C1CCC2(CO)C(O)CC3(C)C(CCC4C5(C)CCC(O)C(C)(C)C5CCC43C)C12 (stereo unspecified),–,> 100 µM,–,90.7 µM,–,32 µM,–,25.2 µM,–,> 100 µM,–,> 100 µM,–,> 100 µM,–,43.6 µM,–,33.3 µM,–,32.6 µM
O=C1c2c(O)cccc2C(C(=O)CCCC(=O)C2c3cccc(O)c3C(=O)c3c(O)cccc32)c2cccc(O)c21,–,14.3 µM,–,0.202 µM,–,0.861 µM,–,1 µM,–,3.39 µM,–,4.74 µM,–,9.72 µM,–,25 µM,–,4.86 µM,–,2.35 µM
O=C(Nc1ccc([N+](=O)[O-])cc1)c1cc2ccccc2cc1O,0.477 µM,> 27.5 µM,0.618 µM,> 100 µM,0.285 µM,0.722 µM,0.172 µM,0.557 µM,0.515 µM,15.2 µM,0.444 µM,2.43 µM,0.399 µM,1.91 µM,1.32 µM,11.3 µM,0.347 µM,> 100 µM,0.322 µM,3 µM
NCCCn1c2c(c3ccc([N+](=O)[O-])cc3c1=O)C(=O)c1cc(Cl)ccc1-2,< 0.01 µM,0.213 µM,1.11 µM,2.8 µM,0.113 µM,0.275 µM,0.0542 µM,0.544 µM,< 0.01 µM,0.391 µM,0.0635 µM,1.4 µM,< 0.01 µM,0.0369 µM,< 0.01 µM,0.141 µM,< 0.01 µM,0.0411 µM,0.0241 µM,0.189 µM
c1ccc([P+](CCC[P+](c2ccccc2)(c2ccccc2)c2ccccc2)(c2ccccc2)c2ccccc2)cc1,15 µM,> 100 µM,11.8 µM,85.4 µM,8.44 µM,40 µM,–,82.2 µM,7.71 µM,> 100 µM,7.44 µM,> 100 µM,–,> 100 µM,6.79 µM,> 100 µM,4.53 µM,> 100 µM,–,> 100 µM
CC1CCC(C#N)(NOC2=NCCN2)CC1 (stereo unspecified),33.2 µM,> 100 µM,> 100 µM,> 100 µM,> 100 µM,> 100 µM,35.4 µM,91.3 µM,63.1 µM,> 100 µM,31.3 µM,> 100 µM,16.3 µM,37.1 µM,55.6 µM,> 100 µM,29.8 µM,> 100 µM,36.1 µM,> 100 µM
COc1ccc(NCc2c(O)ccc3ccccc23)cc1,–,49.6 µM,–,> 100 µM,–,> 100 µM,–,29.6 µM,–,40.7 µM,–,43.5 µM,–,32 µM,–,> 100 µM,–,38.3 µM,–,> 100 µM
C#CCOc1cccc(Nc2ncnc3c2ncn3C2CCN(C(=O)CCl)C2)c1 (stereo unspecified),18.4 µM,39.1 µM,24.7 µM,91.5 µM,25.7 µM,94.9 µM,19.1 µM,39.6 µM,17.7 µM,38.2 µM,12.1 µM,26.6 µM,18.9 µM,36.8 µM,18.7 µM,41.4 µM,25.7 µM,> 100 µM,26.1 µM,74.2 µM
